The results in this text go back to patent US9689244B2, “Process for water wetting oil-wet surfaces” (BASF SE, priority 2012, dated 2017).

What all share (format): physicochemical
Data set [1] is described as follows: Surface tension (DuNouy ring method) and critical micelle formation concentration. How it is done:
The surface tension was measured as a function of the concentration of the surface active components using the DuNouy ring method (according to Din 53914). The critical micelle formation concentration (cmc) was derived in the usual manner from the measurement graph.
The salts used were NaCl and CaCl2 at a weight ratio of 9:1 NaCl/CaCl2.

Data set [2] can be described thus: Interfacial tension between aqueous solution and oil phase (spinning drop tensiometer). On the procedure: The interfacial tension between aqueous solutions of tested compounds and an oil phase were measured with a spinning drop tensiometer (DataPhysics). As the composition of crude oils may vary decane, dodecane, and hexadecane were used as model oils in order to study the range of application of the tested compounds.

Data set [3] in a line: Modification of the wettability: contact angle of oil on oil wet polyethylene platelets. As to conditions: for Contact angle: dodecane. How it is done:
Polyethylene platelets (3 cm×2 cm) were use as hydrophobic model surfaces for oil wet rocks. As a first step, 5 μl decane or 5 μl dodecane were applied to the polyethylene platelets. The hydrophobic liquids spread on the hydrophobic surface. The contact angle between the oil and the polyethylene surface was measured using a usual contact angle measuring device (DataPhysics) and consequently a value of 0° was obtained. The oil wet platelets were submerged into an aqueous solution of 1 g/l by weight of the compound to be tested. […] The contact angle between oil and the polyethylene surface was measured as function of time. Furthermore, it was inspected visually whether oil droplets became detached from the surface.

A short description of data set [4]: Cloud point of conventional surfactants in saline water. As to conditions: 1% in water having a salinity of 50.000 ppm NaCl. How it is done: For comparative purposes, two conventional surfactants were tested at a concentration of 1% in water having a salinity of 50.000 ppm NaCl and in the usual manner their cloud point was determined.
Setting [5] is: 25 °C, brine NaCl/CaCl2 (9:1) 10,000 ppm.
The mark [6] stands for this setting: 25 °C, brine NaCl/CaCl2 (9:1) 100,000 ppm.
Where [7] appears, read: 60 °C, brine NaCl/CaCl2 (9:1) 10,000 ppm.
Setting [8] is: 60 °C, brine NaCl/CaCl2 (9:1) 100,000 ppm.

As for “Saccharose* 20 EO monoester with C16/C18 fatty acid [Compound S1]”, the “ST At 1 g/l” value in data set [1] (25 °C, brine 10,000 ppm) came to 33.7 mN/m; in data set [1] (25 °C, brine 100,000 ppm), 34.5 mN/m; in data set [1] (60 °C, brine 10,000 ppm), 29.6 mN/m; in data set [1] (60 °C, brine 100,000 ppm) it was 29.1 mN/m. Besides, the cmc in data set [1] (setting [5]) was 0.03 g/L; in data set [1] (setting [6]) it was 0.02 g/L; in data set [1] (setting [7]), 0.03 g/L; in data set [1] (setting [8]) it was 0.02 g/L. For the same substance, the “IFT after 60 min, 1 g/l of sample in aqueous phase, decane” value in data set [2] (25 °C, brine 10,000 ppm) was found to be 3.9 mN/m; in data set [2] (25 °C, brine 100,000 ppm) it was 2.4 mN/m; in data set [2] (60 °C, brine 10,000 ppm), 0.45 mN/m; in data set [2] (60 °C, brine 100,000 ppm), 1.2 mN/m. For the same substance, the “IFT after 60 min, 1 g/l of sample in aqueous phase, docecane” value in data set [2] (25 °C, brine 10,000 ppm) was found to be 2.9 mN/m; in data set [2] (60 °C, brine 10,000 ppm), 0.19 mN/m. The “IFT after 60 min, 1 g/l of sample in aqueous phase, hexadecane” value is 4.0 mN/m in data set [2] (25 °C, brine 10,000 ppm) and 0.55 mN/m in data set [2] (60 °C, brine 10,000 ppm). The “Interfacial tension (IFT) between water and hydrocarbons of different chain lengths, change on addition of wettability modifier” value in data set [2] (hydrocarbons of different chain lengths) was “decreases significantly”. Also, the Contact angle was 6 ° in data set [3] (25° C., brine 10,000 ppm + 1 g/l S1, time 0 min); 13 ° in data set [3] (25° C., brine 10,000 ppm + 1 g/l S1, time 30 min); 14 ° in data set [3] (25° C., brine 10,000 ppm + 1 g/l S1, time 45 min); 17 ° in data set [3] (25° C., brine 10,000 ppm + 1 g/l S1, time 60 min); 22 ° in data set [3] (25° C., brine 10,000 ppm + 1 g/l S1, time 90 min); “beginning” in data set [3] (25° C., brine 10,000 ppm + 1 g/l S1, time 180 min). The Contact angle in data set [3] (25° C., brine 100,000 ppm + 1 g/l S1, time 0 min) is on record as 7 °; in data set [3] (25° C., brine 100,000 ppm + 1 g/l S1, time 30 min), 26 °; in data set [3] (25° C., brine 100,000 ppm + 1 g/l S1, time 45 min), 74 °; in data set [3] (25° C., brine 100,000 ppm + 1 g/l S1, time 60 min) it was “oil already detached”; in data set [3] (60° C., brine 10,000 ppm + 1 g/l S1, time 60 min) it was “beginning”; in data set [3] (60° C., brine 100,000 ppm + 1 g/l S1, time 0 min), “oil already”. In addition, in data set [3] (60° C.), the “Time of contact after which oil is detached from the surface” value was determined as 2 min.

In data set [4], C13-alcohol+20 EO gave a Cloud point of 86 °C.

For “Saccharose * 40 EO diester with C12/C18 fatty acid [Compound S2]”, the “ST At 1 g/l” value in data set [1] (25 °C, brine 10,000 ppm) turned out to be 34.6 mN/m; in data set [1] (25 °C, brine 100,000 ppm), 34.6 mN/m; in data set [1] (60 °C, brine 10,000 ppm), 27.7 mN/m; in data set [1] (60 °C, brine 100,000 ppm) it was 28.3 mN/m. For the same substance, the cmc in data set [1] (setting [5]) turned out to be 0.03 g/L; in data set [1] (setting [6]), 0.03 g/L; in data set [1] (setting [7]), 0.04 g/L; in data set [1] (setting [8]) it was 0.02 g/L. Besides, the “IFT after 60 min, 1 g/l of sample in aqueous phase, decane” value in data set [2] (25 °C, brine 10,000 ppm) is given as 2.3 mN/m; in data set [2] (25 °C, brine 100,000 ppm), 2.1 mN/m; in data set [2] (60 °C, brine 10,000 ppm) it was 0.46 mN/m; in data set [2] (60 °C, brine 100,000 ppm) it was 0.36 mN/m. The “IFT after 60 min, 1 g/l of sample in aqueous phase, docecane” value came out at 2.0 mN/m in data set [2] (25 °C, brine 10,000 ppm) and 0.34 mN/m in data set [2] (60 °C, brine 10,000 ppm). For the same substance, the “IFT after 60 min, 1 g/l of sample in aqueous phase, hexadecane” value in data set [2] (25 °C, brine 10,000 ppm) was determined as 2.2 mN/m; in data set [2] (60 °C, brine 10,000 ppm), 0.40 mN/m.

In data set [4], C16/18-alcohol+80 EO showed a Cloud point of 87 °C.
